The source made the active and inactive calls. No cut-off for these calls is given here.
Assays:
[1] = molecular target: T1, Serine/threonine-protein kinase pim-1 (Homo sapiens, UniProt P11309); experiment: Inhibition of Pim-1 activity (unknown origin) at 100 uM by Eurofins radiometric assay
[2] = Cytotoxicity against human NCE-G 55T2 cells assessed as inhibition of cell growth incubated for 3 days by WST-8 assay; conditions: NCE-G 55T2, 72 h
HCT-116 = experiment: Cytotoxicity against human HCT-116 cells assessed as inhibition of cell growth incubated for 3 days by WST-8 assay; conditions: HCT-116, 72 h
[3] = molecular target: T1, Serine/threonine-protein kinase pim-1; experiment: Inhibition of Pim-1 activity (unknown origin) assessed as residual activity at 100 uM by Eurofins radiometric assay relative to control
[4] = molecular target: T1, Serine/threonine-protein kinase pim-1; experiment: Inhibition of Pim-1 activity (unknown origin) by Eurofins radiometric assay
[5] = molecular target: T1, Serine/threonine-protein kinase pim-1; experiment: Inhibition of Pim-1 in human NCE-G 55T2 cells assessed as reduction in p21 phosphorylation at Thr145 residue at 0.3 mM incubated for 24 hrs by Western blot analysis; format: cell-based

**Q.** Which inhibition [1] does the source give for `Nc1ccc2c(c1)NC(=O)C2Cc1ccc(C(=O)O)cc1` (centres undefined) here?
**A.** Active

**Q.** For `COC(=O)c1ccc(/C=C2/C(=O)Nc3cc(N)ccc32)cc1`, which inhibition [1] is on record?
**A.** Active

**Q.** Which results are given for `O=C1Nc2ccccc2/C1=C\c1ccc(C(=O)O)cc1`?
**A.** IC50 [2]: 100 µM; IC50 (HCT-116): 200 µM

**Q.** For `O=C(O)c1ccc(Cc2coc3cc(O)ccc23)cc1`, which Activity [3] is on record?
**A.** < 50%

**Q.** And the IC50 [4]?
**A.** 26.4 µM

**Q.** With `Cc1cc(O)cc2occ(Cc3ccc(C(=O)O)cc3)c12` as the compound, how does the Activity [3] read?
**A.** < 50%

**Q.** Which results are given for `Nc1ccc2c(c1)NC(=O)/C2=C/c1ccc(C(=O)O)cc1`?
**A.** inhibition [5]: Active; IC50 [4]: 0.6 µM

From ChEMBL document CHEMBL5385864, “Pose, duplicate, then elaborate: Steps towards increased affinity for inhibitors targeting the specificity surface of the Pim-1 kinase” (Eur J Med Chem, 2023)
